Columns and labels:
dermal Arthus reaction = test: reverse passive Arthus reaction test; type: in vivo, Male Sprague-Dawley rats; conditions: rats; 100 mg/kg oral, 30 min before intradermal Anti-B.S.A.; lesion measured 4 hours later; reduction in lesion area vs control
Method: Proc. 35, 774 (1976). Each compound was administered orally to a group of four animals.
The reverse passive Arthus reaction test in rats is conducted as follows: Male Sprague-Dawley rats weighing approximately 130-160 g. are used, 4 rats per group. All animals are injected intravenously with 0.5 ml. 0.075% Bovine Serum Albumin (B.S.A.)+2% Evans Blue solution. Each rat then receives an oral dose of drug; one drug is administered per group.
Thirty minutes subsequent to drug dosing, each animal is injected intradermally with 0.05 ml. 1.44% Anti-B.S.A. into the dorsal skin. Four hours later the animals are sacrificed, the dorsal skin reflexed, and the lesion excised. Two perpendicular diameters of each lesion are measured. The average diameters of the lesions from the treated groups are compared with the average diameters from the control group to determine any drug effect.

carrageenin pleurisy = test: modification of the carrageenin pleurisy assay (Vinegar et al.); type: in vivo; conditions: Dose 100 (dose unit not given); for % Inhibition, Volume exudates: reduction in accumulation of exudate volume; for % Inhibition, Cells: reduction in accumulation of leukocytes
Text: The anti-inflammatory activity of these compounds was established by using a modification of the carrageenin pleurisy assay described by Vinegar et al. Proc. Soc. Exp. Biol. Med. 143:711 (1973).

| SMILES | % Inhibition of lesion of dermal Arthus reaction (dermal Arthus reaction) | % Inhibition, Volume exudates (carrageenin pleurisy) [%] | % Inhibition, Cells (carrageenin pleurisy) [%] |
| --- | --- | --- | --- |
| CCCCC1C(=O)N(c2ccccc2)N(c2ccccc2)C1=O [Phenylbutazone, reference compound] | inactive | 59 | 13 |
| NC1=NN(c2ccc(-c3ccccc3)nn2)CC1 [1-[6'-Phenylpyridazin-3'-yl]-3-aminopyrazol-2-ene] | 65% | 73 | 51 |
| CC1CC(N)=NN1c1ccc(-c2ccccc2)nn1 (stereo not drawn) [1-[6'-phenylpyridazin-3'-yl]-3-amino-5-methylpyrazol-2-ene] | 54% | – | – |
| NC1=NN(c2ccc(-c3ccccc3Cl)nn2)CC1 [1-[6'-(ortho-chlorophenyl)-pyridazin-3'-yl]-3-aminopyrazol-2-ene] | 58% | – | – |
| NC1=NN(c2ccc(-c3cccc(Cl)c3)nn2)CC1 [1-[6'-(meta-chlorophenyl)pyridazin-3'-yl]-3-aminopyrazol-2-ene] | 51% | – | – |
